Measured values reported in ChEMBL document CHEMBL4814010 (Bioorg Med Chem Lett, 2021).
Converted amounts (≈) assume the structure as drawn.

Tests used:
[1] = Corrector activity of Z variant alpha1-antitrypsin misfolding (unknown origin) expressed in CHO cells assessed as inhibition of Z variant alpha1-antitrypsin polymerisation; assay type: cell-based, Homo sapiens
[2] = Lipophilicity, log D of compound by chromatographic method; assay type: physicochemical
[3] = Metabolic stability in human hepatocytes assessed as intrinsic clearance measured per gm of tissue; assay type: ADME, cell-based, Hepatocyte
[4] = Corrector activity of Z variant alpha1-antitrypsin misfolding (unknown origin) assessed as inhibition of Z variant alpha1-antitrypsin polymerisation by TR-FRET assay; set-up: species or system Homo sapiens
[5] = Kinetic solubility of compound; assay type: physicochemical; conditions: read-out: Kinetic_solubility
[6] = Binding affinity to Z variant alpha1-antitrypsin (unknown origin) by competition binding assay; set-up: species or system Homo sapiens
[7] = Volume of distribution in Wistar Han rat at 1 mg/kg, iv; assay type: ADME, organism-based; conditions: in vivo
[8] = Protein binding in rat plasma; assay type: ADME, cell-free; conditions: read-out: PPB (converted)
[9] = Elimination half life in Wistar Han rat at 1 mg/kg, iv; assay type: ADME, organism-based; conditions: in vivo, read-out: beta t1/2 (converted)
[10] = Protein binding in human plasma; assay type: ADME, cell-free; conditions: read-out: PPB
[11] = Clearance in rat hepatocytes measured per gm of tissue; assay type: ADME, cell-based, Hepatocyte
[12] = Protein binding in human blood; assay type: ADME, tissue-based; conditions: read-out: PB
Albumin = Albumin (Homo sapiens, UniProt P02768); test: Binding affinity to human serum albumin; assay type: ADME; conditions: isolated protein
Albumin, sequence (P02768 whole entry): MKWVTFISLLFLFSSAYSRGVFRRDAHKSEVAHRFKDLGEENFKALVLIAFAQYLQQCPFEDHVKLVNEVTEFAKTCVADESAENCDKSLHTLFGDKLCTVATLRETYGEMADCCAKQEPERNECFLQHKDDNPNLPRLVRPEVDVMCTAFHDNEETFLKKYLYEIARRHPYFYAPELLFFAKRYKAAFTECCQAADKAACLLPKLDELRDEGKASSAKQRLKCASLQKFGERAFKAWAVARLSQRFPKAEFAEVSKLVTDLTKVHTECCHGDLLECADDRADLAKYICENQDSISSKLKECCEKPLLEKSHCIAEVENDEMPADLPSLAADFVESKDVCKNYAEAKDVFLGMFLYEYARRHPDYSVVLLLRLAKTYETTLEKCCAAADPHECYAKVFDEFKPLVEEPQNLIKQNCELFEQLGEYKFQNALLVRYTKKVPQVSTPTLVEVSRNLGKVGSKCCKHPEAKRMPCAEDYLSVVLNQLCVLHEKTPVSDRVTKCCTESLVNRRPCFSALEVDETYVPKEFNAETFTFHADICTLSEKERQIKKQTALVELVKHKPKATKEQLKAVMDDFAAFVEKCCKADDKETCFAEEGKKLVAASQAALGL

[13] = Clearance in Wistar Han rat blood at 1 mg/kg, iv; assay type: ADME, organism-based
[14] = Corrector activity of Z variant alpha1-antitrypsin misfolding (unknown origin) expressed in CHO cells assessed as inhibition of Z variant alpha1-antitrypsin polymerisation by measuring increase in Z alpha1 antitrypsin secretion; assay type: cell-based

Row | pIC50 [1] | chromatographic logD [2] | CLH [3] | pIC50 [4] | solubility kinetic [5] | SMILES | further results
1 | 4.9 | 3.7 | 0.2 mL/min/g | 7.3 | ≥ 420 µM | CCC[C@@H](NC(=O)c1cccc2c1CC(=O)N2)[C@@H](O)c1ccccc1C(F)(F)F | –
2 | 4.5 | 4.3 | – | 6.5 | ≥ 439 µM | CCC[C@@H](NC(=O)c1ccc2cc[nH]c2c1)[C@@H](O)c1ccccc1 | –
3 | 4.4 | 3.2 | – | 6.6 | ≥ 392 µM | CCC[C@@H](NC(=O)c1cccc2c1CC(=O)N2)[C@@H](O)c1ncccc1C | –
4 | 4.2 | 3.4 | – | 7.4 | ≥ 227 µM | CCC[C@@H](NC(=O)c1cncc2[nH]c(=O)[nH]c12)[C@@H](O)c1cccc(Cl)c1C | –
5 | 5.6 | 3.4 | 0.3 mL/min/g | 8.3 | ≥ 395 µM | CCC[C@@H](NC(=O)c1cccc2c1CC(=O)N2)[C@@H](O)c1ccccc1C | –
6 | – | – | – | 5.5 | – | CCC[C@@H](NC(=O)c1ccc2cc[nH]c2c1)[C@H](O)c1ccccc1 | –
7 | 6.3 | 5.2 | 3.7 mL/min/g | 8.6 | 128 µM (≈ 49.5 µg/mL) | CCC[C@@H](NC(=O)c1cccc2c1NC(=O)C2)[C@@H](O)c1cccc(Cl)c1C | –
8 | – | – | – | 6.5 | – | CCCC(NC(=O)c1ccc2cc[nH]c2c1)C(O)c1ccccc1 (stereo unspecified) | IC50 [4]: 0.3 µM
9 | 6.3 | 3.8 | 0.3 mL/min/g | 8.3 | ≥ 528 µM | CCC[C@@H](NC(=O)c1cccc2c1CC(=O)N2)[C@@H](O)c1cccc(F)c1C | pKd [6]: 8.5; Vd [7]: 2.3 L/kg; fraction unbound [8]: 0.19; half-life [9]: 30 min; fraction unbound [10]: < 0.02; CLH [11]: 7.4 mL/min/g; fraction unbound [12]: < 0.02; Activity (Albumin): 84%; clearance [13]: 69 mL/min/kg; EC50 [14]: 0.631 µM
10 | 6.2 | 3.7 | < 0.4 mL/min/g | 8.2 | ≥ 504 µM | CCC[C@@H](NC(=O)c1cccc2c1CC(=O)N2)[C@@H](O)c1cccc(F)c1Cl | –
11 | 4.8 | 3.7 | – | 7.7 | 309 µM (≈ 123 µg/mL) | CCC[C@@H](NC(=O)c1cccc2[nH]c(=O)ccc12)[C@@H](O)c1cccc(Cl)c1C | –
12 | – | – | – | 4.1 | – | CCC[C@H](NC(=O)c1ccc2cc[nH]c2c1)[C@@H](O)c1ccccc1 | –
13 | 5.5 | 3.9 | – | 8 | 200 µM (≈ 77.8 µg/mL) | CCC[C@@H](NC(=O)c1ccnc2[nH]c(=O)[nH]c12)[C@@H](O)c1cccc(Cl)c1C | –
14 | 6 | 4.1 | 1.6 mL/min/g | 8.3 | ≥ 316 µM | CCC[C@@H](NC(=O)c1cccc2c1CC(=O)N2)[C@@H](O)c1ccccc1CC | –
15 | 6.7 | 4.3 | 0.4 mL/min/g | 8.6 | ≥ 450 µM | CCC[C@@H](NC(=O)c1cccc2c1CC(=O)N2)[C@@H](O)c1cccc(Cl)c1C | –
16 | 5.1 | 3.4 | < 0.8 mL/min/g | 7.8 | ≥ 299 µM | CCC[C@@H](NC(=O)c1cccc2c1CC(=O)N2)[C@@H](O)c1ccccc1OC | –
17 | 6.5 | 4.4 | 1.8 mL/min/g | 8.5 | 307 µM (≈ 119 µg/mL) | CCC[C@@H](NC(=O)c1cccc2[nH]c(=O)[nH]c12)[C@@H](O)c1cccc(Cl)c1C | –

The next lines start with the molecule.

Row | SMILES | pIC50 [1] | chromatographic logD [2] | CLH [3] | pIC50 [4] | solubility kinetic [5] | further results
18 | CCC[C@@H](NC(=O)c1cccc2c1CC(=O)N2)[C@@H](O)c1ccccc1Cl | 5.7 | 3.6 | 0.4 mL/min/g | 8.1 | ≥ 356 µM | –
19 | CCC[C@@H](NC(=O)c1ccnc2c1CC(=O)N2)[C@@H](O)c1cccc(Cl)c1C | 5.9 | 3.9 | 0.9 mL/min/g | 8.1 | ≥ 314 µM | –
20 | CCC[C@H](NC(=O)c1ccc2cc[nH]c2c1)[C@H](O)c1ccccc1 | – | – | – | < 4 | – | –
21 | CCC[C@@H](NC(=O)c1cccc2[nH]c(=O)oc12)[C@@H](O)c1cccc(Cl)c1C | 5.4 | 5.1 | – | 8 | 326 µM (≈ 127 µg/mL) | –
22 | CCC[C@@H](NC(=O)c1ccc2oc(=O)[nH]c2c1)[C@@H](O)c1ccccc1 | < 4 | 3.2 | – | 6.3 | 299 µM (≈ 102 µg/mL) | –
23 | CCC[C@@H](NC(=O)c1cccc2c1CC(=O)N2)[C@@H](O)c1cccc(C)c1 | 5.7 | 3.6 | – | 8.1 | 19 µM (≈ 6.7 µg/mL) | –
24 | CCC[C@@H](NC(=O)c1ccc2oc(=O)[nH]c2c1)[C@@H](O)c1ccccc1C | 4.3 | 3.9 | – | 6.9 | ≥ 420 µM | –
25 | CCC[C@@H](NC(=O)c1cccc2oc(=O)[nH]c12)[C@@H](O)c1cccc(Cl)c1C | 5.1 | 5.2 | – | 8.2 | 233 µM (≈ 90.6 µg/mL) | –
26 | CCC[C@@H](NC(=O)c1cccc2c1CC(=O)N2)[C@@H](O)c1ccncc1C | < 4 | 1.6 | – | 6.5 | 300 µM (≈ 106 µg/mL) | –
27 | CCC[C@@H](NC(=O)c1cccc2c1CC(=O)N2)[C@@H](O)c1cccc(Cl)c1 | 6 | 3.7 | – | 8.4 | 52 µM (≈ 19.4 µg/mL) | –
28 | CCC[C@@H](NC(=O)c1cccc2c1CC(=O)N2)[C@@H](O)c1cnccc1C | < 4 | 1.9 | – | 5.9 | ≥ 346 µM | –
29 | CCC[C@@H](NC(=O)c1cccc2c1CC(=O)N2)[C@@H](O)c1cc(Cl)ccc1C | 5.3 | 4.3 | – | 8.6 | ≥ 408 µM | –
